Laboratory results reported in US5606037A, “Processes antineoplastic heteronaphthoquinones” (BioChem Pharma Inc., priority 1995, dated 1997).
Structures can show the parent of a compound that is named as a salt.

Experiments:
Assay type in all cases: cell-based, Human
[1] = test system: SKOV3 (Ovarian adenocarcinoma); assay: In vitro cytotoxicity, microculture tetrazolium (MTT) assay, SKOV3; details: Homo sapiens, SK-OV-3; SKOV3 ovarian adenocarcinoma; 48 h with compound, further 48 h, MTT; Table 1
Method: (§1) The microculture tetrazolium assay was used to test in vitro cytotoxicity. This assay is described in Plumb, J. A. et al., 1989 Cancer Research 49, 4435-4440, which is herein incorporated by reference. The cytotoxicity of compounds towards tumor cells is measured in vitro using the assay. This assay method is based upon the ability of live, but not dead cells to reduce the yellow water soluble dye 3-(4,5-dimethylthiazol-2-yl)-2,5-diphenyltetrazolium bromide (MTT) to its water insoluble purple formazan product.
(§2) Human Tumor Cell lines, used were:
SKOV3 (Ovarian adenocarcinoma)--provided by Dr. V. Ling, Ontario Cancer Institute.
(§3) The cells were maintained in exponential growth in culture in minimal essential media (MEM) supplemented with non-essential amino acids, and containing 15% (v/v) fetal. bovine serum, 5 mM L-glutamine, 1 mM sodium pyruvate, and 0.1 U/ml insulin. All cell lines were grown at 37° C. in an atmosphere of 5% CO2 in air.
(§4) MTT: 2 mg/ml in phosphate buffered saline (stable at 4° C. in dark for 1 week).
(§5) Sorensen's buffer: 0.1M glycine/NaOH, pH 10.5, containing 0.1M NaCl.
(§6) Test compounds: 20 mM in DMSO and diluted to a final concentration of 200 μM in culture medium before use.
(§7) For each assay, doxorubicin is included as an inter-assay standard. This allows us to monitor the behaviour of the assay in general, and in particular, to check that the SKVLB line has maintained its resistant phenotype.
(§8) The assays are carried out in 96-well (8 well×12 well) microtiter plates. Serial dilutions of the compound are tested along the length of the plate. A 1:3 serial dilution of compound in culture medium covers a concentration range from 100 μM to 1.7 nM. Each concentration of compound is tested in quadruplet, allowing two compounds to be tested per plate. Wells containing no cells (blank) and cells with no test compound (control) are included on each plate.
(§9) Cells are plated out in 100 μl of culture medium in the microtiter plates at a density of around 1,500-4,000 cells per well. The plates are incubated overnight to allow the cells to become adherent after which the test compound is added (100 μl of appropriate dilution per well). The cells are incubated with test compound at 37° C. for 48 h after which the compound is replaced with fresh medium. After a further 48 h incubation at 37° C., 50 μl of MTT solution (2 mg/ml) is added to each well. The plates are incubated in the dark for 4 h at 37° C. after which the medium is removed. The MTT formazan product is extracted from the cells by the addition of 200 μl DMSO followed by 50 μl of Sorensen's buffer. The plates are shaken briefly and the absorbance at 570 nm is read using a Molecular Devices UV max plate reader. Curves are fit to the MTT assay data using a four parameter logistic equation, and the data are normalized to fit a 0% to 100% survival scale.

[2] = test system: T47D (Ductal carcinoma of breast); assay: In vitro cytotoxicity, microculture tetrazolium (MTT) assay, T47D; details: Homo sapiens, 48 h with compound, further 48 h, Table 1
Method: as §1, §2
T47D (Ductal carcinoma of breast)--ATCC catalog #HTB-133.
as §3, §4, §5, §6, §7, §8, §9

[3] = test system: HT 29 (Colon adenocarcinoma); assay: In vitro cytotoxicity, microculture tetrazolium (MTT) assay, HT29; details: Homo sapiens, HT-29, 48 h with compound, further 48 h, Table 1
Method: as §1, §2
HT 29 (Colon adenocarcinoma) ATCC catalog #HTB-38.
as §3, §4, §5, §6, §7, §8, §9

Lox (Melanoma) = assay: In vitro cytotoxicity, microculture tetrazolium (MTT) assay, LOX; details: Homo sapiens, 48 h with compound, further 48 h, Table 1
Method: as §1, §2
Lox (Melanoma)--Southern Research Institute.
as §3, §4, §5, §6, §7, §8, §9

[4] = test system: SKVLB (Ovarian; multidrug resistant); assay: In vitro cytotoxicity, microculture tetrazolium (MTT) assay, SKVLB; details: Homo sapiens; SKVLB multidrug resistant ovarian; 48 h with compound, further 48 h, MTT; Table 1
Method: as §1, §2
SKVLB (Ovarian; multidrug resistant)--Dr. V. Ling, Ontario Cancer Institute.
as §3, §4, §5, §6, §7, §8, §9

Row | SMILES | IC50 [1] [nM] | IC50 [2] [µM] | IC50 [3] [nM] | IC50 (Lox (Melanoma)) [nM] | IC50 [4] [µM]
1 | CC(=O)[C@@H]1CC2=C(C(=O)c3ccccc3C2=O)[C@@H](O[C@H]2C[C@H](NC(=O)C(F)(F)F)[C@H](I)[C@H](C)O2)O1 [BCH1620, (1'-S,1-R,3-S)-methyl-(1-[2',3',6'-trideoxy-3'-trifluoroacetamido-4'-iodo-L-lyxohexopyranose]-5,10-dioxo-3,4,5,10-tetrahydronaphtho-[2,3-c]-pyran-3-yl)-ketone] | 4.2 | 0.183 | 32.8 | 22.7 | 0.216
2 | COCC1(COC)CC2=C(C(=O)c3ccccc3C2=O)[C@H](O[C@H]2C[C@H](NC(=O)C(F)(F)F)[C@H](O)[C@H](C)O2)O1 [BCH1697] | 3700 | 18 | 11000 | 5320 | 13.2
3 | COC(=O)[C@H](CC(C)C)NC(=O)[C@H](CO[C@H]1O[C@H](C(C)=O)CC2=C1C(=O)c1ccccc1C2=O)NC(=O)OC(C)(C)C [BCH1998, (1S,2'S,3S,5'S)-Methyl-(1-O-[N-BOC-Serine-Leucine-Me ester]-5,10-dioxo-3,4,5,10-tetrahydro-1-H-naphtho[2,3-c]pyran-3-yl) ketone] | 125 | 0.114 | 36.3 | 63.1 | 1.66
4 | COC(=O)[C@H](CC(C)C)NC(=O)[C@@H](N)CO[C@H]1O[C@H](C(C)=O)CC2=C1C(=O)c1ccccc1C2=O [BCH2000, (1S,2'S,3S,5'S)-Methyl-(1-O-[Serine-Leucine-Me ester]-5,10-dioxo-3,4,5,10-tetrahydro-1-H-naphtho[2,3-c]pyran-3-yl) ketone hydrochloride] | 95 | 0.338 | 37.8 | 90.5 | 6.64
5 | CC(=O)[C@H]1CC2=C(C(=O)c3ccccc3C2=O)[C@H](O[C@@H]2O[C@@H](C)[C@@H](O)[C@@H](O)[C@H]2I)O1 [BCH2014, (1'S,1S,3R)-methyl-(1-[2',6'-dideoxy-3',4'-dihydroxy-2'-iodo-L-lyxohexopyranose]-5,10-dioxo-3,4,5,10-tetrahydronaphtho[2,3-c]-pyran-3-yl)-ketone] | 21500 | 61.8 | 61300 | 35900 | 39.8
6 | CC(=O)[C@@H]1CC2=C(C(=O)c3ccccc3C2=O)[C@@H](O[C@@H]2O[C@@H](C)[C@@H](O)[C@@H](O)[C@H]2I)O1 [BCH2015, (1'S,1R,3S)-methyl-(1-[2',6'-dideoxy-3',4'-dihydroxy-2'-iodo-L-lyxohexopyranose]-5,10-dioxo-3,4,5,10-tetrahydronaphtho[2,3-c]-pyran-3-yl) ketone] | 367 | 0.909 | 557 | 1090 | 1.17
7 | CC[C@H]1CC2=C(C(=O)c3ccccc3C2=O)[C@H](O[C@H]2C[C@H](NC(=O)C(F)(F)F)[C@H](O)[C@H](C)O2)O1 [BCH2020, (1'S, 1S, 3S)-5,10-dioxo-3-ethyl-1-(2',3',6'-trideoxy-3'-trifluoroacetamido-L-lyxohexopyranose)-3,4,5,10-tetrahydro-1H-naphtho-[2,3-c]-pyran] | 11200 | 9.42 | 19100 | 5450 | 25.9
8 | CC[C@H]1CC2=C(C(=O)c3ccccc3C2=O)[C@H](O[C@H]2C[C@H](N)[C@H](O)[C@H](C)O2)O1 [BCH2021, (1'S,1S,3S)-5,10-dioxo-3-ethyl-1-(2',3',6'-trideoxy-3'-amino-L-lyxohexopyranose)-3,4,5,10-tetrahydro-1H-naphtho-[2,3-c]-pyran hydrochloride] | 12400 | 19 | 37800 | 10600 | 46.4
9 | CC(=O)[C@H]1CC2=C(C(=O)c3ccccc3C2=O)[C@H](O[C@@H]2O[C@@H](C)[C@@H](O)[C@@H](NC(=O)C(F)(F)F)C2I)O1 (stereo partly drawn) [BCH2022, (1'S,1S,3R)-methyl-(1-[2',3',6'-trideoxy-2'-iodo-3'-trifluoroacetamido-4'-hydroxy-L-lyxohexopyranose]-5,10-dioxo-3,4,5,10-tetrahydronaphtho-[2,3-c]-pyran-3-yl) ketone] | 442 | 0.934 | 532 | 484 | 1.87
10 | CC(=O)[C@@H]1CC2=C(C(=O)c3ccccc3C2=O)[C@@H](O[C@@H]2O[C@@H](C)[C@@H](O)[C@@H](NC(=O)C(F)(F)F)C2I)O1 (stereo partly drawn) [BCH2023, (1'S,1R,3S)-methyl-(1-[2',3',6'-trideoxy-2'-iodo-3'-trifluoroacetamido-4'-hydroxy-L-lyxohexopyranose]-5,10-dioxo-3,4,5,10-tetrahydronaphtho-[2,3-c]-pyran-3-yl) ketone] | 730 | 5.5 | 980 | 670 | 3.2
11 | C[C@@H]1O[C@@H](O[C@H]2O[C@H](COc3ccccc3)CC3=C2C(=O)c2ccccc2C3=O)C[C@H](NC(=O)C(F)(F)F)[C@@H]1O [BCH2032, (1'S, 1R, 3S)-5,10-dioxo-3-phenyloxymethyl-1-(2',3',6'-trideoxy-3'-trifluoroacetamido-L-lyxohexopyranose)-3,4,5,10-tetrahydro-1H-naphtho-[2,3-c]pyran] | 6010 to 12000 | 15.8 to 23 | 8490 to 9300 | 2830 to 5100 | 17.6 to 28
12 | CC(=O)[C@@H]1CC2=C(C(=O)c3ccccc3C2=O)[C@@H](O[C@H]2C[C@H](NC(=O)C(F)(F)F)[C@H](O)[C@H](C)O2)S1 [BCH2037, (1'S,1S,3S)-1-(3'-trifluoroacetamido-2',3',6'-trideoxy-L-lyxohexopyranose)-5,10-dioxo-3,4,5,10-tetrahydro-1H-naphtho-[2,3-c]-thiopyran] | 590 to 5090 | 2.2 to 2.29 | 1100 to 4250 | 540 to 816 | 3.8 to 4.73
13 | COC1OC(C(=O)Nc2ccccc2)=CC2=C1C(=O)c1ccccc1C2=O (stereo not drawn) [BCH2044, 1-methoxy-3-N-anilinylcarbonyl-5,10-dioxo-5,10-dihydro-1H-naphtho-[2,3-c]-pyran] | 1440 | 4.25 | 194 | 380 | 5.11
14 | CC(=O)[C@H]1CC2=C(C(=O)c3ccccc3C2=O)[C@H](O[C@H]2C[C@H](NC(=O)C(F)(F)F)[C@H](Br)[C@H](C)O2)O1 [BCH2047, (1S,3R,1'S)-Methyl-(1-[2',3',4',6'-tetradeoxy-3'-trifluoroacetamido-4'-bromo-L-lyxohexopyranose]-5,10-dioxo-3,4,5,10-tetrahydronaphthaleno-[2,3-c]pyran-3-yl) ketone] | 17 | 0.151 | 4.1 | 21 | 0.523
15 | CC(C)[C@@H]1CC2=C(C(=O)c3ccccc3C2=O)[C@@H](O[C@H]2C[C@H](NC(=O)C(F)(F)F)[C@H](O)[C@H](C)O2)O1 [BCH2053, (1'S, 1R, 3S)-5,10-dioxo-3-isopropyl-1-(2',3',6'-trideoxy-3'-trifluoroacetamido-L-lyxohexopyranose)-3,4,5,10-tetrahydro-1H-naphtho-[2,3-c]-pyran] | 4730 | 12.3 | 14000 | 3250 | 21.2
